Assays:
NavMs = target: T1, NavMs (Magnetococcus marinus, UniProt A0L5S6); experiment: […]+ uptake into proteoliposomes; assay type: biochemical; conditions: 3:1 POPE:guest lipid, pH 7.5, 60 min; activator, greatest activity of guest lipids tested
T1 construct: gene Mmc1_0798; expressed in E. coli, hexa-His tag cleaved with thrombin; tetramer; reconstituted in liposomes
T1 sequence (A0L5S6 1-239 limits assumed): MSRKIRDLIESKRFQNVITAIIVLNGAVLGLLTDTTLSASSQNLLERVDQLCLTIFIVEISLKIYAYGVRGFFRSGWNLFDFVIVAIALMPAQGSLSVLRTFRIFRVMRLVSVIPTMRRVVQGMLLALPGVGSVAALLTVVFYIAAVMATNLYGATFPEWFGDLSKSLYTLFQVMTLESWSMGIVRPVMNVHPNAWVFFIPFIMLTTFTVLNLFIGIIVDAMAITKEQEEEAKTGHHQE

NaChBac = target: T2, NaChBac (Halalkalibacterium halodurans, UniProt Q9KCR8); experiment: […]+ uptake into proteoliposomes; assay type: biochemical; conditions: 3:1 POPE:guest lipid, pH 7.5, 120 min; activator, greatest activity of guest lipids tested, modest variation
T2 construct: gene BH1501; full-length, expressed in E. coli, hexa-His tag cleaved with thrombin; ~31 kDa monomer; tetramer; reconstituted in liposomes
T2 sequence (Q9KCR8 1-274): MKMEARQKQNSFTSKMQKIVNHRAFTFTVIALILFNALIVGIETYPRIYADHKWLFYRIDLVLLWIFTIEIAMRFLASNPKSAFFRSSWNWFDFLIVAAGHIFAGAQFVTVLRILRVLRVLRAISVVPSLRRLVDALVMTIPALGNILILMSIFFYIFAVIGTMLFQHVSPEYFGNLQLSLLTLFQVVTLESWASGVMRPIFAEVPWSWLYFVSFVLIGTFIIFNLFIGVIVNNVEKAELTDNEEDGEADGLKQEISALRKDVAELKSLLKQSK

[1] = target: NavSp, voltage-gated sodium channel from Silicibacter pomeroyi (Silicibacter pomeroyi) (UniProt F7IVA8); experiment: SEC; Superdex 200 10/300 GL; 10 mM Tris-HCl pH 7.5, 100 mM NaCl, 0.02% NaN3, 0.25% Cymal-5; elution at tetramer mass plus Cymal-5 micelle (~23 kDa)
pore-only NavMs = target: T3, pore-only NavMs (Magnetococcus marinus, UniProt A0L5S6); experiment: […]+ uptake into proteoliposomes; assay type: biochemical; conditions: 3:1 POPE:guest lipid, pH 7.5, 60 min; small but significant activation
T3 construct: gene Mmc1_0798; purified from decyl maltoside; tetramer; reconstituted in liposomes
T3 sequence (A0L5S6 130-237): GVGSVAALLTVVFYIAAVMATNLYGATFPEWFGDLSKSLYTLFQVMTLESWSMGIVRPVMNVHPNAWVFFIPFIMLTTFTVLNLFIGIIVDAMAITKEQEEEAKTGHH

NavSp = target: T4, NavSp (Ruegeria pomeroyi, UniProt F7IVA8); experiment: […]+ uptake into proteoliposomes; assay type: biochemical; conditions: 3:1 POPE:PI liposomes with 1% PI(4,5)P2, pH 7.5; inhibitor
T4 construct: gene SPO0030; full-length, expressed in E. coli, N-terminal hexa-His tag cleaved with thrombin; 258 amino acids; ~29 kDa monomer; tetramer; reconstituted in liposomes
T4 sequence (F7IVA8 1-258): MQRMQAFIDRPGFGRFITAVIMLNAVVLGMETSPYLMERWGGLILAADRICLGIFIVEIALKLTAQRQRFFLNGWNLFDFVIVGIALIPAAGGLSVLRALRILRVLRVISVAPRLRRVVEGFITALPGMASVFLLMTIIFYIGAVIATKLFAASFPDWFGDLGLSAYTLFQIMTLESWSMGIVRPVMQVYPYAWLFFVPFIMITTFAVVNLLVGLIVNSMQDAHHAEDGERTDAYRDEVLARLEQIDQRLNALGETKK

[2] = target: NavSp pore-only construct (voltage sensor subdomain removed) (Silicibacter pomeroyi); experiment: SEC; gel filtration of pore-only constructs in decyl maltoside (0.2% DM); elution at tetramer mass plus DM micelle (~30 kDa)
[3] = target: the molecule itself; experiment: SEC; Superdex 200 10/300 GL; 10 mM Tris-HCl pH 7.5, 100 mM NaCl, 0.02% NaN3, 0.25% Cymal-5; elution at tetramer mass plus Cymal-5 micelle (~23 kDa)
[4] = target: the molecule itself; experiment: SEC; gel filtration of pore-only constructs in decyl maltoside (0.2% DM); elution at tetramer mass plus DM micelle (~30 kDa)

For `CCCCCCCC/C=C\CCCCCCCC(=O)O[C@H](COC(=O)CCCCCCCCCCCCCCC)COP(=O)(O)OCC(O)CO` (some centres unmarked) [PG, 1-palmitoyl 2-oleoyl phospatidyl glycerol], the “22Na+ uptake into proteoliposomes” value (NavMs) was “NavMs and NaChBac also showed maximal activity with a negatively-charged lipid” and the “22Na+ uptake into proteoliposomes” value (NaChBac) was “NavMs and NaChBac also showed maximal activity with a negatively-charged lipid”.

“NavSp, voltage-gated sodium channel from Silicibacter pomeroyi (from UniProt F7IVA8 1-258) (natural protein)” showed a stoichiometry N [1] of 4.

With `CCCCCCCC/C=C\CCCCCCCC(=O)OC[C@H](COP(=O)(O)OCC(O)COP(=O)(O)OC[C@@H](COC(=O)CCCCCCC/C=C\CCCCCCCC)OC(=O)CCCCCCC/C=C\CCCCCCCC)OC(=O)CCCCCCC/C=C\CCCCCCCC` (some centres unmarked) [CL, 18∶1 cardiolipin] the “22Na+ uptake into proteoliposomes” value (pore-only NavMs) was “small but significant increase in activity when CL was present in the liposomes”.

In the case of “phosphatidylinositol 4,5-bisphosphate [PI(4,5)P2]”, the “% inhibition at 1% PI(4,5)P2” value (NavSp) is reported as ~ 50%.

“NavSp pore-only construct (voltage sensor subdomain removed) (domain or fragment)” was tested, and the stoichiometry N [2] was 4.

B1: NaChBac, voltage-gated sodium channel from Bacillus halodurans (natural protein, UniProt Q9KCR8 1-274, looked up)
chain: T2 sequence (Q9KCR8 1-274)
notes: NaChBac, voltage-gated sodium channel of Bacillus halodurans, Uniprot ID Q9KCR8, full length; pET15b vector was bought; source: E. coli, purified (DDM solubilisation, Ni-NTA in Cymal-5, thrombin, gel filtration)
With B1 the “stoichiometry N” value [3] was 4.

B2: NavMs pore-only construct (voltage sensor subdomain removed) (domain or fragment, Magnetococcus spirillium (strain MC-1))
chain: T3 sequence (A0L5S6 130-237)
notes: NavMs of Magnetococcus spirillium (strain MC-1), Uniprot ID printed as AOL5S6 (A0L5S6), pore-only construct without the voltage sensor subdomain; PDB 4F4L is the cited crystal structure of the NavMs pore; also called pore-only NavMs; source: E. coli, purified in decyl maltoside (DM)
In the case of B2, the “stoichiometry N” value [4] is reported as 4.

Source: publication PMC3620320, “Differential Lipid Dependence of the Function of Bacterial Sodium Channels” (PLoS ONE, 2013)
